Measurements taken from ChEMBL document CHEMBL5608141, “Identification of compartment-specific drug sensitivities in CRC organoid-stroma co-cultures” (2024).
Non-standard residues stand in square brackets, D forms with d. Residues, ends and D or L forms follow the SMILES beside them. Arg(Me) = CNC(=N)NCCC[C@H](N)C(=O)O; d3Pal = N[C@H](Cc1cccnc1)C(=O)O; d4Pal = N[C@H](Cc1ccncc1)C(=O)O; azaGly = NNC(=O)O

Columns and labels:
Assay type in all cases: functional, Homo sapiens
Set-up in all cases: dose or concentration left out as unconfirmed
Colon cancer organoid [1] = assay: Identification of compartment-specific drug sensitivities in O14 CRC organoid-stroma F14 CAF co-cultures. Organoid is transduced with Lucferase2-P2A-EGFP lentivirus, fibroblast with Renilla-dsRed lentivirus. Dual-Glo Luciferase assay is used to report viability data.
Colon cancer organoid [2] = assay: Identification of compartment-specific drug sensitivities in O06 CRC organoid-stroma F06 CAF co-cultures. Organoid is transduced with Lucferase2-P2A-EGFP lentivirus, fibroblast with Renilla-dsRed lentivirus. Dual-Glo Luciferase assay is used to report viability data.
Colon cancer organoid [3] = assay: Identification of compartment-specific drug sensitivities in O20 CRC organoid-stroma F20 CAF co-cultures. Organoid is transduced with Lucferase2-P2A-EGFP lentivirus, fibroblast with Renilla-dsRed lentivirus. Dual-Glo Luciferase assay is used to report viability data.
[4] = Transduced with Lucferase2-P2A-EGFP lentivirus
[5] = Transduced with Renilla-dsRed lentivirus

SMILES	Cell Viability (Colon cancer organoid [1]; [4]) [%]	Cell Viability (Colon cancer organoid [1]; [5]) [%]	Cell Viability (Colon cancer organoid [2]; [4]) [%]	Cell Viability (Colon cancer organoid [2]; [5]) [%]	Cell Viability (Colon cancer organoid [3]; [4]) [%]	Cell Viability (Colon cancer organoid [3]; [5]) [%]
CC(=O)Nc1c(F)cc(C(=O)N[C@H]2CC[C@H](O)CC2)cc1O[C@@H](C)c1ccccc1 [GSK046]	96.2623	124.481	141.493	157.689	118.485	118.66
CNC(=O)c1cc(C(=O)NC2CC2)cn(Cc2ccccc2)c1=O [GSK620]	84.0371	91.229	111.223	132.009	93.0444	100.747
COCc1nc2cnc3cc(-c4c(C)noc4C)c(OC[C@H]4CCNC4)cc3c2n1[C@H](C)c1ccccc1 [GSK778]	41.3417	133.991	81.063	183.714	27.6505	143.906
Cc1cc2c(-c3ccco3)cnc(N[C@@H]3CCN(C)C[C@H]3C(=O)NC3CCCCC3)c2[nH]c1=O [GSK789]	52.4382	127.289	76.5976	134.369	34.1492	125.83
Cc1cc2c(-c3ccco3)cnc(N[C@H]3CCN(C)C[C@@H]3C(=O)NC3CCCCC3)c2[nH]c1=O [GSK791]	100.549	110.493	113.813	153.556	101.663	116.18
CNC(=O)c1cc(C(=O)N[C@H]2[C@@H]3COC[C@@H]32)cc2c1O[C@@H](CF)[C@@H]2c1ccccc1 [GSK943]	96.5907	102.587	83.6271	130.888	107.286	108.354
CNC(=O)c1cc(C(=O)N[C@H]2[C@@H]3COC[C@@H]32)cc2c1O[C@H](CF)[C@H]2c1ccccc1 [GSK973]	99.5313	122.198	110.942	170.924	97.9061	135.509
C[C@@H](Oc1cc(-n2cnc3ccc(CN4CCN(C)CC4)cc32)sc1C(N)=O)c1ccccc1C(F)(F)F [GSK-461364]	14.2355	96.4779	8.2073	127.3	35.9092	141.481
O=C(O)c1ccc(-c2c[nH]c3ncc(-c4ccccc4)cc23)cc1C1CCCC1 [GSK-650394]	112.026	70.7781	92.5027	110.19	93.9419	129.576
CCn1cc(-c2ccnc3[nH]c(-c4cccc(CN(C)C)c4)cc23)c(-c2ccc(NC(=O)N(C)C)cc2)n1 [GSK-1070916]	13.7383	103.854	8.589	116.692	9.494	207.056
COc1ccc(COc2ccc(Cc3cnc(N)nc3N)cc2OC)cc1 [GW632580X]	144.194	102.086	84.8428	83.7807	200.298	84.9331
COc1cc2ncn(-c3cc(OCc4ccccc4C(F)(F)F)c(C(N)=O)s3)c2cc1OC [GW843682X]	3.29	110.017	4.781	182.458	89.1479	152.214
CCOc1cc2ncc(C#N)c(Nc3ccc(OCc4cccc(F)c4)c(Cl)c3)c2cc1NC(=O)/C=C/CN(C)C [HKI-357]	38.7389	28.7857	16.8896	39.6819	50.6947	47.1207
CCN1CCN(c2ccc(Nc3cc(N(C)C(=O)Nc4c(Cl)c(OC)cc(OC)c4Cl)ncn3)cc2)CC1 [INFIGRATINIB]	55.6946	110.833	0.6967	125.024	101.232	52.242
Cc1c(Oc2ccc(F)cc2)c(OC(C)C)nn1-c1ccc(C2CC2)cn1 [IPP/CNRS-A019]	67.4569	79.6967	92.46	90.9232	91.0165	118.396
COCCc1ccc(-c2c(C)nc3c(N4CCOCC4)ccnn23)cn1 [JNJ-42396302]	94.533	84.3411	121.378	128.188	126.017	102.271
COc1nc2ccc([C@@](O)(c3ccccc3)C3CCN(C(C)=O)CC3)cc2c(Cl)c1Cc1ccc(-n2cccn2)cc1 [JNJ-54119936]	99.4009	84.202	97.0001	121.742	65.101	118.395
CC(=O)Nc1ncc(CN2CCC[C@H](Cc3cc(C)nc(C)c3)C2)s1 [JNJ-65355394]	108.182	61.6526	116.935	172.928	88.5022	103.797
CC(=O)Nc1nc(CN2CCC[C@H](Cc3cc(C)nc(C)c3)C2)cs1 [JNJ-73924149]	104.416	83.6177	82.0789	131.954	90.3874	105.251
N#CN1CC[C@@H](C(=O)Nc2nc3c(s2)CN(C(=O)CN=[N+]=[N-])CC3)C1 [JYQ88]	68.7487	88.1605	72.1963	58.5555	64.1943	84.2967
CNC(=N)NCCC[C@H](NC(=O)[C@H](CC(C)C)NC(=O)NNC(=O)[C@H](Cc1ccccc1)NC(=O)[C@H](CO)NC(=O)[C@H](CC(N)=O)NC(=O)[C@@H](Cc1ccncc1)NC(=O)[C@H](N)Cc1ccc(O)cc1)C(=O)N[C@@H](Cc1ccccc1)C(N)=O [KISS1-305] (H-[dY][d4Pal]NSF[azaGly]L[Arg(Me)]F-NH2)	102.723	96.9932	113.14	104.585	118.72	125.679
CNC(=N)NCCC[C@H](NC(=O)[C@H](CC(C)C)NC(=O)NNC(=O)[C@H](Cc1ccccc1)NC(=O)[C@H](CO)NC(=O)[C@H](CC(N)=O)NC(=O)[C@@H](Cc1cccnc1)NC(=O)[C@H](N)Cc1ccc(O)cc1)C(=O)NCC(N)=O [KISS1-543] (H-[dY][d3Pal]NSF[azaGly]L[Arg(Me)]G-NH2)	105.115	104.622	93.1752	90.9674	101.104	120.489
C[C@]1(O)C[C@@H](c2nc(-c3ccc4ccc(-c5ccccc5)nc4c3)c3c(N)nccn32)C1 [LINSITINIB]	56.8923	65.041	53.0716	100.619	60.6188	65.9185
O=C(NOC[C@H](O)CO)c1ccc(F)c(F)c1Nc1ccc(I)cc1F [MIRDAMETINIB]	7.045	23.0385	8.8965	49.9042	3.902	83.5811
CCS(=O)(=O)Nc1ccc(Oc2ccc(F)cc2F)c(-c2cn(C)c(=O)c3[nH]ccc23)c1 [MIVEBRESIB]	15.6468	169.821	13.1828	272.686	5.758	64.2458
CN([C@@H]1CCc2c(CC(=O)O)c3ccccc3n2C1)S(=O)(=O)c1ccc(F)cc1 [MK-7246]	114.74	112.48	70.9731	124.085	94.6909	109.932
C[C@@H]1CN(c2cc(-c3nn(C)c4ccc(OC5(C)CC5)cc34)ncn2)C[C@H](C)O1 [MLi-2-NC]	144.766	104.291	55.8067	87.1439	112.711	86.6644
CC(=O)c1c(NS(C)(=O)=O)c2cc(-c3ccc(Cl)cc3)c(-c3ccc(Cl)cc3Cl)nc2n(C)c1=O [MRL-CB1-NC]	112.083	107.66	117.339	76.9916	159.821	122.581
Cc1ccc(-c2cnc([C@@]3(O)CC[C@H](C(=O)O)C(C)(C)C3)s2)cc1Nc1cccc(C(F)(F)F)n1 [MRL-SYKi-NC]	134.887	107.343	119.382	86.5869	106.503	131.597
